In patent EP0200024B1, “3-Cyano-pyridines, process for their preparation and their pharmaceutical use” (ARZNEIMITTELWERK DRESDEN GmbH, priority 1985, dated 1986):
Where two headings read alike, the source gives them in different places.

Tests used:
[1] = test system: Langendorff-Herz; assay: Langendorff heart in vitro (isolated perfused, freely beating heart; inotropy, chronotropy, coronary flow); parameters: species or system Meerschweinchen; settings: for EC30: molarity of solution, 0,1 ml bolus into aortic stump, giving 30 % increase of inotropy, read-out: Erhöhung der Inotropie um 30 % bei Applikation von je 0,1 ml einer ... molaren Lösung; for EC100: molarity of solution, 0,1 ml bolus, giving 100 % increase of coronary flow, read-out: Erhöhung des Koronardurchflusses um 100 % bei Applikation von je 0,1 ml einer ... molaren Lösung; for positiv chronotrope Wirkung / positiv inotrope Wirkung: result in words
Procedure: Für die Versuche wurden männliche Meerschweinchen mit einer, Körpermasse von 300-350 g eingesetzt. An isolierten, mit carbogenbegaster Tyrodelösung von 37 °C durchströmten, frei schlagenden Herzen, wurden unter konstantem Druck die Kontraktionskraft (Inotropie), die Frequenz (Chronotropie) und der Koronardurchfluß unter dem Einfluß der 3-Cyan-2-(heteroalkyl-1-hetero)-5-(pyrid-4-yl)-pyridine der Formel I untersucht. Dazu wurden jeweils 0,1 ml der entsprechend molaren Substanzlösungen als Bolus direkt in den Aortenstumpf appliziert. Die 3-Cyan-2-(heteraalkyl-1-hetera)-5-(pyrid-4-yl)-pyridine zeigten eine teilweise starke und konzentrationsabhängige positiv inotrope und koronardilatatorische Wirkung. Die positiv chronotrope Wirkung war deutlich geringer, ausgeprägt. Beispielsweise zeigen die Verbindungen der Beispiele 1.2, 1.6, 1.7 und 1.8 eine Erhöhung der Inotropie um 30 % bei Applikation von je 0,1 ml einer 3,0 · 10⁻³, 2,2 · 10⁻², 2,0 · 10⁻⁴ bzw. 1,0 · 10⁻³ molaren Lösung und eine Erhöhung des Koronardurchflusses um 100 % bei Applikation von je 0,1 ml einer 6,0 · 10⁻³, 6,5 · 10⁻², 1,1 · 10⁻² bzw. 1,3 · 10⁻² molaren Lösung. Die Verbindungen der Beispiele 2.2, 2.3 und 2.4 weisen bei Applikation von je 0,1 ml einer 10⁻² molaren Stammlösung in die Aorta eine Erhöhung der Inotropie um 51 %, 38 % und 31 % sowie eine Erhöhung des Koronardurchflusses um 59 %, 99 % bzw. 88 % auf.

[2] = test system: Isolierter, spontanaktiver Vorhof des Meerschweinchens; assay: Isolated, spontaneously active atrium (inotropy and frequency); parameters: species or system Meerschweinchen; settings: for chronotrope Wirkung / positiv inotrope Wirkung: result in words
Procedure: Für die Versuche wurden männliche Meerschweinchen mit einer Körpermasse von 400-500 g verwendet. Am isolierten, spontanaktiven Vorhof erfolgte nach einer 60 Min. währenden Adaptationszeit der Organpräparate in 32 °C temperierter carbogen-durchperlter Tyrodelösung die Untersuchung der Beeinflussung von Inotropie und Frequenz unter Einwirkung der 3-Cyan-2-(heteroalkyl-1-hetero)-pyridine der Formel I. Eine Reihe von Verbindungen zeigte eine starke und dosisabhängige positiv inotrope Wirkung. Bei Verwendung einer Tyrodelösung nach A.A. Alousi et al. [Circ. Res. 45, 666 (1979)] zeigen beispielsweise die Verbindungen von Beispiel 1.2, 1.7, 1.27, 3.3, 3.4, 3.5, 4.1 bzw. 4.3 eine 30%ige Steigerung der Inotropie bei Konzentrationen von 5,6 · 10⁻⁵, 5,4 · 10⁻⁶, 5,0 · 10⁻⁵, 5,8 · 10⁻⁵, 9,1 · 10⁻⁵, 1,6 · 10⁻⁴, 3,5 · 10⁻⁵ und 5,4 · 10⁻⁵ mol/l. Die Verbindung von Beispiel 1.27 zeigt bei einer Konzentration von 5 · 10⁻⁵ mol/l eine Abnahme der Frequenz um 15 %. Die Verbindung von Beispiel 1.8 zeigt bei Verwendung einer Tyrodelösung mit der Zusammensetzung (mmol/l): NaCl 136,9; KCl 2,7; CaCl₂ 1,8; MgCl₂ 1,0; NaHCO₃ 11,9; NaH₂PO₄ 0,4; Glucose 16,5 eine 30%ige Steigerung der Inotropie bei einer Konzentration von 1,2 · 10⁻⁴ mol/l.

[3] = test system: Narkotisiertes Minischwein; assay: Anaesthetised minipig i.v. (dp/dtmax, blood pressure); format: in vivo, Zwergschweinen (Mini-LEWE); settings: result in words
From the text: Die Untersuchungen wurden an 6 männlichen Zwergschweinen (Mini-LEWE) mit einem durchschnittlichen Gewicht von 50 kg durchgeführt. Die Tiere wurden unter N₂O-O₂-Beatmung (3:1) und Muskelrelaxation (d-Tubocurarin) thorakotomiert. Der Blutdruck wurde in der Aorta ascendens mittels Transducer und der Druck im linken Ventrikel (LVP) mit einem Tipmanometer gemessen. Aus dem LVP-Signal wurde über ein Differenzierglied dp/dtmax ermittelt. Aus dem EKG wurde mit einem Kardiotachometer die Herzfrequenz zusammen mit anderen Signalen registriert. Das Herz-Zeit-Volumen wurde mit einem elektromagnetischen Flowmeter gemessen und über einen Integrator das Herz-Schlag-Volumen ermittelt. Einige der 3-Cyan-2-(heteroalkyl-1-hetero)-pyridine der Formel I zeigen an diesem Modell eine starke und dosisabhängige Erhöhung der Kontraktilität des Herzens (dp/dtmax) sowie teilweise eine signifikante Senkung des totalen peripheren Gesamtwiderstandes. So wurden beispielsweise unter den Verbindungen von Beispiel 1.2 und 1.7 bei einer Dosis von 2,0 · 10⁻⁶ bzw. 5,5 · 10⁻⁷ eine 50%ige Steigerung des Kontraktilitätsparameters dp/dtmax sowie bei einer Dosis von 1,1 · 10⁻⁶ bzw. 1,7 · 10⁻⁶ eine 10%ige Senkung des diastolischen Blutdruckes, der neben der beobachteten Steigerung des Herzzeitvolumens eine wesentliche Größe zur Bestimmung des totalen peripheren Gefäßwiderstandes darstellt, gefunden.

[4] = test system: Samenleiter von Meerschweinchen; assay: Noradrenaline antagonism in vitro (noradrenaline contraction of isolated vas deferens); settings: for IC50: Cavia porcellus, compound given 1 min before submaximal noradrenaline concentration, read-out: ED₅₀-Werte (Hemmung der Noradrenalinkontraktion); for Hemmung der Noradrenalinkontraktion: result in words
Procedure: Die in Warmblüterphosphattyrode präparierten Samenleiter von Meerschweinchen (ca. 400 g Körpermasse) wurden 60 Min. im Organbad adaptiert. Anschließend wurden die Kontraktionen unter Gabe von Noradrenalin isotonisch registriert. Die 3-Cyan-2-(heteroalkyl-1-hetero)-pyridine der Formel I wurden 1 Min vor den jeweils submaximal reagierenden Noradrenalinkonzentrationen in das Organbad appliziert. […] Für die Verbindungen von Beispiel 1.2, 1.6, 1.7 und 1.8 ergaben sich beispielsweise ED₅₀-Werte von 2,2 · 10⁻⁵, 1,6 · 10⁻⁴, 2,5 · 10⁻⁴ sowie 1,3 · 10⁻⁴ mol/l.

[5] = test system: Meerschweinchen; assay: Inhalative histamine bronchospasm, oral administration; format: in vivo; settings: Cavia porcellus, 1 h, 60 min before inhaled 0,1 % histamine, 10 animals per dose, read-out: ED₅₀-Werte (Schutz vor Histamin-Bronchialkonstriktionen)
Procedure: Eine, in einem Ultraschallverdampfer vernebelte 0,1 %ige Histaminlösung induziert an männlichen Meerschweinchen (Körpermasse 200-300 g) innerhalb von 2 bis 3 Min. typische Bronchialkonstriktionen. Durch orale Verabreichung geeigneter Dosen der 3-Cyan-2-(heteroalkyl-1-hetero)-pyridine der Formel I 60 Min. vor der inhalativen Histamingabe wurden die Tiere innerhalb einer festgelegten Expositionszeit vor den durch Histamin verursachten Bronchialkonstriktionen geschützt. Für die Derivate von Beispiel 1.2, 1.6, 1.7 und 1.8 ergeben sich z.B. aus je 10 Tieren pro Dosis ED₅₀-Werte von 4,3 · 10⁻⁴, 6,0 · 10⁻⁴, 3,3 · 10⁻⁴ sowie 2,5 · 10⁻⁴ mol/kg, was auf deutliche bronchodilatatorische bzw. antiallergische Wirkungen hinweist.

[6] = Tyrode solution according to A.A. Alousi et al., 32 °C, read-out: 30%ige Steigerung der Inotropie bei Konzentrationen von

Structure (SMILES)	EC30 [1]	EC100 [1]	positiv chronotrope Wirkung [1]	positiv inotrope Wirkung [1]	EC30 [2, 6]	chronotrope Wirkung [2]	positiv inotrope Wirkung [2]	Senkung des diastolischen Blutdruckes [3]	Steigerung des Kontraktilitätsparameters dp/dtmax [3]	IC50 [4]	Hemmung der Noradrenalinkontraktion [4]	ED50 [5]	EC30 ([2]; Tyrode solution (mmol/l): NaCl 136,9, KCl 2,7, CaCl₂ 1,8, MgCl₂ 1,0, NaHCO₃ 11,9, NaH₂PO₄ 0,4, Glucose 16,5, read-out: 30%ige Steigerung der Inotropie bei einer Konzentration von)
N#Cc1cc(-c2ccncc2)cnc1NCCO [Beispiel 1.2, 3-Cyan-2-(2-hydroxy-ethylamino)-5-(pyrid-4-yl)-pyridin]	3000 µM	6000 µM	relative geringer positiv chronotroper Aktivität	ausgeprägte und dosisabhängige positiv inotrope Wirkung	56 µM	relative geringer positiv chronotroper Aktivität	ausgeprägte und dosisabhängige positiv inotrope Wirkung	dosisabhängige signifikante Senkung	beträchtliche dosisabhängige Steigerung	22 µM	konzentrationsabhängige Hemmung	430 µmol/kg	
N#Cc1cc(-c2ccncc2)cnc1N1CCOCC1 [Beispiel 1.7, 3-Cyan-2-morpholino-5-(pyrid-4-yl)-pyridin]	200 µM	11000 µM	relative geringer positiv chronotroper Aktivität	ausgeprägte und dosisabhängige positiv inotrope Wirkung	5.4 µM	relative geringer positiv chronotroper Aktivität	ausgeprägte und dosisabhängige positiv inotrope Wirkung	dosisabhängige signifikante Senkung	beträchtliche dosisabhängige Steigerung	250 µM	konzentrationsabhängige Hemmung	330 µmol/kg	
N#Cc1cc(-c2ccncc2)cnc1NCCCO [Beispiel 1.8, 3-Cyan-2-(3-hydroxy-propylamino)-5-(pyrid-4-yl)-pyridin]	1000 µM	13000 µM	relative geringer positiv chronotroper Aktivität	ausgeprägte und dosisabhängige positiv inotrope Wirkung		relative geringer positiv chronotroper Aktivität	ausgeprägte und dosisabhängige positiv inotrope Wirkung			130 µM		250 µmol/kg	120 µM
